Here are results for two compounds from patent US20050112251A1, “Preservation of liquids” (priority 2002, published 2005).

For series [1], the system named is Aspergillus versicolor 245.62. The experiment in a line: Natamycin MIC, agar diffusion method. The class given is cell-based. How it is done:
(§1) The minimal inhibition concentration (MIC) of these fungi or the minimal effective amount of the antifungal compound was determined using the agar diffusion method, which is well known in the art. Fungus spores were grown on agar plates containing different concentrations of natamycin. The concentration of natamycin on which no visible growth could be observed was considered as the minimal inhibition concentration for that particular fungus strain.

For series [2], the system named is Byssochlamys nivea 424.300. The experiment in a line: Natamycin MIC, agar diffusion method. In kind it is cell-based. To be noted: Paecilomyces niveus, agar plates, no visible growth. How it is done:
as §1

For series [3], the system named is Cladosporium tenuissimum 117.79. Kind of series: Natamycin MIC, agar diffusion method. The class given is cell-based. To be noted: isolated from fruit. Here is the method: as §1
On the technique in general: In agar diffusion tests the substance spreads into inoculated agar from a disc or well.

Series [4] relates to Mucor circinelloides 366.70. The experiment in a line: Natamycin MIC, agar diffusion method. The class given is cell-based. Conditions: isolated from strawberries. How it is done:
as §1

For series [5], the system named is Peacilomyces variotii 10274. The experiment in a line: Natamycin MIC, agar diffusion method. In kind it is cell-based. Here is the method: as §1
The subject of series [6] is Stemphiliomma valparadisiacum 510.83. The experiment in a line: Natamycin MIC, agar diffusion method. In kind it is cell-based. Conditions: isolated from apple juice. Here is the method:
as §1

Series [7] deals with Talaromyces macrosporus 130.89. Kind of series: Natamycin MIC, agar diffusion method. In kind it is cell-based. Conditions: isolated from pineapple juice. Here is the method:
as §1

For series [8], the system named is Zygosporium mycophilum 396.49. The experiment in a line: Natamycin MIC, agar diffusion method. The class given is cell-based. Conditions: isolated from apple pulp. Here is the method:
as §1

Series [9] relates to Zygosaccharomyces bailii CBS 1097. The experiment in a line: Time to spoilage of inoculated apple juice (visible growth, turbidity). In kind it is cell-based. To be noted: room temperature. Here is the method: (§2) All experiments were done with pure apple juice. The chosen concentrations of natamycin were sub-optimal (=below MIC).
(§3) All experiments were executed in duplo. • a. The effect of natamycin against the spore forming yeast Zygosaccharomyces bailii CBS 1097 was examined. Apple juice was inoculated with 10^4 Colony Forming Units (CFU)/ml of apple juice. Natamycin was added at a concentration of 1 ppm. • b. The effect of natamycin was tested against Penicillium italicum ATCC 36041. A spore suspension was prepared using well-known methods. The freshly prepared spore suspension was added to apple juice to a final concentration of 104 spores/ml of apple juice. Natamycin was added at a concentration of 5 ppm.
(§4) The samples were incubated at room temperature until fungal growth was visually observed (turbidity of the juice).
(§5) The pulsed electric fields treatments were applied according to well-known procedures for PEF-treatments of liquids. The apple juice to be treated was pumped through the PEF-treatment chamber with a flow rate of 60 litres per hour. The treatment temperature also called juice temperature before the PEF-treatment chamber was 17° C. The value of the electric field strength and the pulse length kept constant were 35 kV/cm and 2-μs, respectively. Three samples points were validated by variation of the pulse frequency, from 8.6 Hz (treatment A) to 5.7 Hz (treatment B) and 2.9 Hz (treatment C). With the above-mentioned parameters, the apple juice received 12, 8 or 4 pulses; those correspond to an energy density of 71, 37 and 12.5 J/ml of juice, respectively.
The chosen inoculation levels, natamycin concentrations and PEF treatments were as described in the examples 2 and 3.
(§6) All samples were incubated at room temperature until fungal growth was visually observed (turbidity of the juice).
Zygosaccharomyces bailii was inoculated in apple juice as described in example 2. Sorbate was added at a concentration of 800 ppm.
The PEF-treatment was used as described in the example 3. […] (treatment B).
The samples were incubated at room temperature.

In series [10] the test system is Penicillium italicum ATCC 36041. The description is as above. The class given is cell-based. Conditions: room temperature. Here is the method: as §2, §3, §4, §5
The chosen inoculation levels, natamycin concentrations and PEF treatments were as described in the examples 2 and 3. The natamycin can be added before or after the PEF treatment.
as §6

Series [11] concerns Talaromyces macrosporus CBS 130.89 spores. Kind of series: Time to visible growth of heat-resistant fungus spores in apple juice. In kind it is cell-based. To be noted: 104 spores/ml apple juice, incubation 25° C. Here is the method:
This example describes the activity of natamycin against spores of a heat resistant fungal species, which is well known for causing spoilage problems in food industry. All experiments were executed on Talaromyces macrosporus CBS 130.89 spores suspended in pure apple juice. The chosen concentration of natamycin was sub-optimal. […] All experiment were executed in duplo.
Apple juice was inoculated with 104 spores/ml of apple juice. Natamycin was added at a concentration of 2.5 ppm. The spores suspended in the apple juice were submitted to a heat treatment at 80° C. for 5 minutes in order to stimulate their germination.
The samples were incubated at room temperature until fungal growth was visually observed (turbidity of the juice). Growth was observed after 4 days of incubation at 25° C.
This example describes the effect of a Pulsed Electric Field treatment against heat-resistant spores of Talaromyces macrosporus CBS 130.89. The pulsed electric fields treatments were applied as describe in the example 3. One sample point was validated for a frequency of 8.6 Hz (treatment A).
The chosen inoculation levels, natamycin concentrations and PEF treatments were as described in the examples 8 and 9. The natamycin can be added before or after the PEF treatment.
All samples were incubated at room temperature until fungal growth was visually observed (turbidity of the juice). […]

The nature of series [12]: Stability of antifungal agent in apple juice during PEF treatment (HPLC). In kind it is physicochemical. Conditions: for inactivation of the antifungal agent by the PEF treatment: general statement in the description. Here is the method:
as §5
This example illustrates the resistance of natamycin to PEF treatments. Natamycin was added to apple juice at a concentration of 5 ppm and submitted to pulsed electric field treatments as described in example 3. The natamycin content after the PEF-treatments was determined by HPLC.

Series [13] deals with fungal spores which survived the PEF treatment. Kind of series: Inhibition of outgrowth of fungal spores, summary of agar diffusion MIC. In kind it is cell-based. Conditions: summary of Table 1. Here is the method:
as §1

The test system of series [14] is most food born fungi. To be noted: cited from earlier work.
The conditions of series [15]: cited from earlier work.
Setting [16] is: natamycin 5 ppm + PEF-treatment C (2.9 Hz, 12.5 J/ml).

By MIC is commonly meant the smallest concentration in the dilution series that meets the test's criterion for growth inhibition. In the case of `C[C@@H]1C/C=C/C=C/C=C/C=C/[C@H](O[C@@H]2O[C@H](C)[C@@H](O)[C@H](N)[C@@H]2O)C[C@@H]2O[C@](O)(C[C@@H](O)C[C@H]3O[C@@H]3/C=C/C(=O)O1)C[C@H](O)[C@H]2C(=O)O` [natamycin], the minimal inhibitory concentration (MIC) in series [1] is below 2.5 µg/mL; in series [2], below 2.5 µg/mL; in series [3] it was below 2.5 µg/mL; in series [4], below 2.5 µg/mL; in series [5] it was below 2.5 µg/mL; in series [6], below 5 µg/mL. Besides, the minimal inhibitory concentration (MIC) in series [7] and in series [8] was below 2.5 µg/mL throughout. Further, the “Time to spoilage, natamycin added before PEF-treatment” value in [9] (natamycin 1 ppm + PEF-treatment A (8.6 Hz, 71 J/ml)) is recorded as above 30 days; in series [10] (setting [16]), above 30 days. The “Time to spoilage, natamycin added after PEF-treatment” value is recorded as above 30 days in [9] (natamycin 1 ppm + PEF-treatment B (5.7 Hz, 37 J/ml)) and above 30 days in series [10] (setting [16]). Besides, the Time to spoilage in series [9] (natamycin 1.0 ppm alone, 10^4 CFU/ml) is 2 days; in series [10] (natamycin 5.0 ppm alone, 104 spores/ml), 4 days. Besides, the “Time until growth observed” value in series [11] (natamycin 2.5 ppm + PEF-treatment A) came out at 9 days; in series [11] (natamycin 2.5 ppm alone, heat activation 80° C. 5 minutes), 4 days. The “natamycin content after the PEF-treatments (HPLC)” value in series [12] (5 ppm in apple juice, PEF treatments as in example 3) was “None of the analyzed samples showed a decrease”. Moreover, the “inactivation of the antifungal agent by the PEF treatment” value in series [12] is on record as “not inactivated”. In [13], the “concentration that inhibits the outgrowth of fungal spores” value is below 5 ppm. Further, the “MIC (Minimal Inhibition Concentration)” value in series [14] is listed as “less than 10 ppm”. Further, the solubility in water in series [15] is on record as 30 to 50 ppm.

Consider `CC=CC=CC(=O)O` [sorbate], for which, in series [9] (sorbate 800 ppm + PEF-treatment B), the “Time without observed fungal growth” value is recorded as “at least 30 days”. The “Time until fungal growth visually observed” value in series [9] (sorbate 800 ppm alone) was 6 days. Moreover, the “inactivation of the antifungal agent by the PEF treatment” value in [12] is recorded as “not inactivated”.
